Measurements reported in ChEMBL document CHEMBL5042544, “Discovery of a Potent and Selective ATAD2 Bromodomain Inhibitor with Antiproliferative Activity in Breast Cancer Models” (J Med Chem, 2022).

What was measured:
[1] = molecular target: T1, ATPase family AAA domain-containing protein 2 (Homo sapiens, UniProt Q6PL18); experiment: Inhibition of GST-ATAD2 BD (951 to 1132 residues) (unknown origin) expressed in Escherichia coli BL21 (DE3) and biotinylated tetra-acetylated histone H4 peptides as substrate incubated for 30 mins by TR-FRET assay
T1 sequence (Q6PL18 whole entry): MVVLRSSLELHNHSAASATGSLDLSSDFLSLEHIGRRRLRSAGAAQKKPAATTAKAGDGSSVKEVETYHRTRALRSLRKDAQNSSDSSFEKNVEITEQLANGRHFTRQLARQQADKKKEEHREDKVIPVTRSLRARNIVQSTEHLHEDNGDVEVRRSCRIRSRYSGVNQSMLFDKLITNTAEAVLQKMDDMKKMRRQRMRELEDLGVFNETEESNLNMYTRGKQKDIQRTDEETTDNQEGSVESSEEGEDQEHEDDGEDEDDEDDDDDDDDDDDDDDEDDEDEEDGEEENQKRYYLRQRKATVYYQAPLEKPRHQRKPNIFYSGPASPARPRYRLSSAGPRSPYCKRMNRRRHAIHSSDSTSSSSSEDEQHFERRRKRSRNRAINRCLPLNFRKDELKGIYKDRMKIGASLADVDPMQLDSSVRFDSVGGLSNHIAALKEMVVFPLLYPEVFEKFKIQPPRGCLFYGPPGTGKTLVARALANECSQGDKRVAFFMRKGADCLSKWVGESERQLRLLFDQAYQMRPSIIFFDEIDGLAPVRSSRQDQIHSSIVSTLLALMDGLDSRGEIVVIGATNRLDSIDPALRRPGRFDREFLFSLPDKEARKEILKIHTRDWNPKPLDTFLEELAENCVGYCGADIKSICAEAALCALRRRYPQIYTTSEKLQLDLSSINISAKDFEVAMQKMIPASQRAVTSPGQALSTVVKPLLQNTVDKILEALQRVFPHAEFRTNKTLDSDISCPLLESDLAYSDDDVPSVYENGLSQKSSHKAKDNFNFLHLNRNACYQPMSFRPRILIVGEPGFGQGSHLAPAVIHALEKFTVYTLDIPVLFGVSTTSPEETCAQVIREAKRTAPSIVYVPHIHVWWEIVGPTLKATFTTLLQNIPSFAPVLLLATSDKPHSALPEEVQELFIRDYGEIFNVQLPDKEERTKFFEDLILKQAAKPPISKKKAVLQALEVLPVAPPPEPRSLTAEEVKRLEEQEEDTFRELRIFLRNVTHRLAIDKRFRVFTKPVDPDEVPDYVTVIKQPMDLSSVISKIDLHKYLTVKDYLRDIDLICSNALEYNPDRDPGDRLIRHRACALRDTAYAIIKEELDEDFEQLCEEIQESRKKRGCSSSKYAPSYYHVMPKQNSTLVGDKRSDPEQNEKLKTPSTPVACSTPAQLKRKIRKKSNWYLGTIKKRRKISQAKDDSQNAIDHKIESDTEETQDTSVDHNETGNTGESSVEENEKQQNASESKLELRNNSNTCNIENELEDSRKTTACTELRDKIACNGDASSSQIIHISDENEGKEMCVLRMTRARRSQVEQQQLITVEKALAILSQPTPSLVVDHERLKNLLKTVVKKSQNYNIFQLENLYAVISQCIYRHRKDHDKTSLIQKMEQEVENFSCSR

[2] = molecular target: T1, ATPase family AAA domain-containing protein 2; experiment: Inhibition of GST-ATAD2 BD (951 to 1132 residues) (unknown origin) expressed in Escherichia coli BL21 (DE3) and biotinylated tetra-acetylated histone H4 peptides as substrate by TR-FRET artifact assay
[3] = molecular target: T2, Bromodomain-containing protein 4 (Homo sapiens, UniProt O60885); experiment: Displacement of Alexafluor 647-JQ1 from GST-BRD4 BD1 BD2 (44 to 460 residues) (unknown origin) incubated for 60 mins by fluorescence polarization assay
[4] = Distribution coefficient, logD of compound at pH 7.4; format: physicochemical; conditions: octanol/water
[5] = molecular target: T2, Bromodomain-containing protein 4; experiment: Displacement of Halo-tagged Histone H3.3 from Nanoluc-BRD4 BD1/BD2 (44 to 460 residues) (unknown origin) transfected in human HCT116 cells incubated for 18 hrs by NanoBRET assay; format: cell-based, HCT-116
[6] = species: Homo sapiens; experiment: Selectivity ratio of IC50 for Inhibition of […] GST-ATAD2 BD (981 to 1108 residues) (unknown origin) expressed in Escherichia coli BL21 (DE3) to IC50 for Halo-tagged Histone H3.3 from Nanoluc-ATAD2 BD ([…] residues) (unknown origin) transfected in human HCT116 cells
[7] = molecular target: T1, ATPase family AAA domain-containing protein 2; experiment: Displacement of Halo-tagged Histone H3.3 from Nanoluc-ATAD2A BD (962 to 1119 residues) (unknown origin) transfected in human HCT116 cells incubated for 18 hrs by NanoBRET assay; format: cell-based, HCT-116
[8] = molecular target: T1, ATPase family AAA domain-containing protein 2; experiment: Displacement of Halo-tagged Histone H3.3 from Nanoluc-ATAD2 BD (962 to 1119 residues) (unknown origin) transfected in human HCT116 cells incubated for 18 hrs in presence of efflux inhibitor elacridar by NanoBRET assay; format: cell-based, HCT-116
[9] = molecular target: T1, ATPase family AAA domain-containing protein 2; experiment: Displacement of Halo-tagged Histone H3.3 from Nanoluc-ATAD2 BD (962 to 1119 residues) (unknown origin) transfected in human HCT116 cells incubated for 18 hrs in presence of efflux inhibitor reversan by NanoBRET assay; format: cell-based, HCT-116
[10] = molecular target: T1, ATPase family AAA domain-containing protein 2; experiment: Displacement of Halo-tagged Histone H3.3 from Nanoluc-ATAD2 BD (962 to 1119 residues) (unknown origin) transfected in human HCT116 cells incubated for 18 hrs in presence of efflux inhibitor verapamil by NanoBRET assay; format: cell-based, HCT-116
[11] = molecular target: T1, ATPase family AAA domain-containing protein 2; experiment: Inhibition of GST-ATAD2 BD (981 to 1108 residues) (unknown origin) expressed in Escherichia coli BL21 (DE3) and biotinylated tetra-acetylated histone H4 peptides as substrate incubated for 30 mins by TR-FRET assay
[12] = test system: MDA-MB-231; experiment: Antiproliferative activity against human MDA-MB-231 cells assessed as inhibition of proliferation after 72 hrs; format: functional

Row | SMILES | IC50 [1] [µM] | IC50 [2] [µM] | IC50 [3] [µM] | logD [4] | IC50 [5] [µM] | Ratio IC50 [6] | IC50 [7] [µM] | IC50 [8] [µM] | IC50 [9] [µM] | IC50 [10] [µM] | IC50 [11] [µM] | GI50 [12] [µM]
1 | Cn1cc(C(=O)N2[C@H]3Cc4ccccc4[C@@H]2CNC3=O)c2c([nH]c3ccccc32)c1=O | 0.42 | > 25.1 | 7.94 | 2 | – | – | – | – | – | – | – | –
2 | Cn1cc(C(=O)N2[C@H]3Cc4ccccc4[C@@H]2CNC3=O)c2cc[nH]c2c1=O | 1.48 | > 25.1 | 15.8 | 0.7 | – | – | – | – | – | – | – | –
3 | Cc1nnc2c(N)cc(C(=O)N3[C@H]4Cc5ccccc5[C@@H]3CNC4=O)nn12 | 0.28 | > 25.1 | 25.1 | 0.8 | – | – | – | – | – | – | – | –
4 | Cc1nnc2c(NC3CCN(C)CC3)nc(C(=O)N3[C@H]4Cc5ccccc5[C@@H]3CNC4=O)cn12 | > 20 | – | – | -0.3 | – | – | – | – | – | – | – | –
5 | CNc1cc(C(=O)N2[C@H]3Cc4ccccc4[C@@H]2CNC3=O)cn(C)c1=O | 11.8 | > 25.1 | – | 0.5 | – | – | – | – | – | – | – | –
6 | Cc1nnc2c(N)cc(C(=O)N3[C@H]4Cc5ccccc5[C@@H]3CNC4=O)cn12 | 6.08 | > 25.1 | > 31.6 | 0.1 | – | – | – | – | – | – | – | –
7 | C[C@H]1NC(=O)[C@@H]2Cc3ccccc3[C@H]1N2C(=O)c1cn(C)c(=O)c2[nH]c3ccccc3c12 | 0.21 | > 25.1 | 31.6 | 1.9 | – | – | – | – | – | – | – | –
8 | Cc1nnc2c(NCCCN3CCCC3)cc(C(=O)N3[C@@H]4c5ccccc5C[C@H]3C(=O)N[C@@H]4C(C)C)nn12 | 0.014 | > 25.1 | 25.1 | 0.5 | 25.1 | 126 | 2 | – | – | – | – | –
9 | COc1cc(C(=O)N2[C@H]3Cc4ccccc4[C@@H]2CNC3=O)cc2c(C)n[nH]c12 | 4.88 | > 251 | > 31.6 | 2 | – | – | – | – | – | – | – | –
10 | Cc1nnc2c(NC3CCN(CC(C)(F)F)CC3)cc(C(=O)N3[C@@H]4c5ccccc5C[C@H]3C(=O)N[C@@H]4C(C)C)nn12 | 0.022 | > 25.1 | > 31.6 | 3 | 50.1 | 25 | 0.501 | 0.501 | 0.501 | 0.501 | – | –
11 | Cc1nnc2c(NC3CCN(C)CC3)cc(C(=O)N3[C@H]4Cc5ccccc5[C@@H]3CNC4=O)cn12 | 0.37 | > 25.1 | > 31.6 | -0.5 | – | – | – | – | – | – | – | –
12 | C[C@H]1NC(=O)[C@@H]2Cc3ccccc3[C@H]1N2C(=O)c1cn(C)c(=O)c2[nH]c3ccc(OC(F)(F)F)cc3c12 | 0.078 | > 25.1 | > 31.6 | 3.4 | 126 | 16 | 1.26 | 0.794 | 0.794 | 0.501 | – | –
13 | Cc1nnc2c(NC3CCN(C)CC3)cc(C(=O)N3[C@H]4Cc5ccccc5[C@@H]3CNC4=O)nn12 | 0.3 | > 25.1 | > 31.6 | 0.2 | 31.6 | 79 | 2.51 | – | – | – | 0.0316 | –
14 | COc1cc(C(=O)N2C3Cc4ccccc4C2CNC3=O)cc(OC)c1O (stereo unspecified) | 20.2 | > 25.1 | > 31.6 | 0.9 | – | – | – | – | – | – | – | –
15 | CN1C[C@H]2c3ccccc3C[C@@H](C1=O)N2C(=O)c1cn(C)c(=O)c2[nH]ccc12 | 3.56 | > 25.1 | 7.94 | 0.9 | – | – | – | – | – | – | – | –
16 | COc1cc(C(=O)N2[C@H]3Cc4ccccc4[C@@H]2CNC3=O)cc(OC)c1O | 21.2 | > 25.1 | > 31.6 | 0.9 | – | – | – | – | – | – | – | –
17 | CC(C)[C@H]1NC(=O)[C@@H]2Cc3ccccc3[C@H]1N2C(=O)c1cn(C)c(=O)c2[nH]c3ccccc3c12 | 0.44 | > 25.1 | > 31.6 | 2.6 | – | – | – | – | – | – | – | –
18 | CO[C@H]1CNC[C@@H](OCC2CCC(F)(F)CC2)[C@@H]1Nc1ncc(-c2cncc(C)c2)c2cc(C)c(=O)[nH]c12 | – | – | – | 2.7 | – | – | – | – | – | – | – | –
19 | CC1=C(C#N)c2nc(N)c(C#N)c(C)c2/C1=C\c1ccc(-c2cc(C(=O)O)ccc2Cl)o1 | – | – | – | – | – | – | – | – | – | – | 3.16 | 1
20 | Cc1nnc2c(NCCCN3CCC(F)(F)CC3)cc(C(=O)N3[C@@H]4c5ccccc5C[C@H]3C(=O)N[C@@H]4C(C)C)nn12 | 0.02 | > 25.1 | > 31.6 | 3 | 31.6 | 63 | 1.26 | – | – | – | – | –
21 | Cc1cc(C(=O)N2[C@H]3Cc4ccccc4[C@@H]2CNC3=O)c[nH]c1=O | 26.3 | > 25.1 | > 31.6 | 0.3 | – | – | – | – | – | – | – | –
22 | Cc1nnc2c(NCCCN3CCCC3)cc(C(=O)N3[C@H]4Cc5ccccc5[C@@H]3CNC4=O)nn12 | 0.041 | > 25.1 | > 31.6 | -0.3 | – | – | – | – | – | – | – | –
23 | Cn1cc(C(=O)N2[C@H]3Cc4ccccc4[C@@H]2CNC3=O)cc(N)c1=O | 34.3 | > 25.1 | > 31.6 | 0 | – | – | – | – | – | – | – | –
